In US20110172193A1, “PRO-DRUGS OF (E)-7-(3-(2-AMINO-1-FLUOROETHYLIDENE)PIPERIDIN-1-YL)-1-CYCLOPROPYL-6-FLUORO-8-METHOXY-4-OXO-1,4-DIHYDROQUINOLINE-3-CARBOXYLIC ACID” (priority 2010, published 2011):
Where two headings read alike, the source gives them in different places.

What was measured:
[1] = Clarity of test compound solutions at […] (aqueous solubility); settings: for solubility at 24 h: 50 mM citrate buffer, pH 4, aqueous buffer, thermodynamic from solid; for Aqueous Solubility pH~7 (visual clarity): […] active-form equivalents, pH 7 (50 mM phosphate), after 24 hours
Experimental: A 50-mg/mL solution of a compound of formula (I) or a compound of formula (II) in H2O was titrated with 0.1 M NaOH until pH reached 5.7-6.1. Any solid that precipitated was filtered. The remaining solutions or phase-separated oil/H2O mixtures were freeze-dried to produce zwitterions as fluffy solids.
The aqueous solubility of Compounds #14, #15 and #16 were determined by a modified procedure. In these cases, the samples were targeted at a pH of 4 and 7 and were measured exclusively using 100 mM phosphate buffers. For both pH's, measured samples were initially prepared at ˜3 mg/ml and ˜10 mg/ml concentrations and for samples that dissolved rapidly, additional compound was added to the solution until saturated solutions were obtained.

[2] = In vitro bioconversion of pro-drug to parent drug in mouse blood, plasma, liver and kidney extract; format: in vitro ADME; settings: for Peak Area of pro-drug: 37° C. incubator; for Conversion to the parent compound (summary in words): mouse whole blood, liver/kidney extracts, plasma
Experimental: Compound concentrations were normalized to parent drug content by multiplying by a ratio of the relative molecular weights. Time 0 (minute) samples were prepared by immediately diluting with an equal volume of acetonitrile, vortexing, and transferring the samples to ice. […] Representative compounds of the present invention and the parent compound were analyzed by reversed-phase HPLC using an Agilent 1100 system. […] The solvent flow rate was 1 mL/min, and the column temperature was 40° C. Compound and parent peak identification was by diode array detection, monitored at 300 nm Conversion of the compounds (prodrugs) to parent drug was estimated by peak areas (A300 nm, mAU) of the respective agents. Mouse whole blood and plasma were collected from Swiss Webster mice, and stored at 4° C. until use (within 48 hours). […] For these experiments, fresh whole mouse livers or kidneys were homogenized for approximately 30 seconds (Omni-Tip™ disposable homogenizer tip) in 1 mL sterile saline and immediately stored on ice. Crude extracts (non-centrifuged) were incubated with the test compound or parent (20 μg/mL) and processed as described above.

[3] = In vitro bioconversion of pro-drug to parent drug in human blood and plasma; format: in vitro ADME; settings: for Peak Area of pro-drug: 37° C.; for Conversion to the parent compound (summary in words): human whole blood and plasma
Experimental: Compounds #1, #4, #6, #15, and #16, as well as the parent drug [(E)-7-(3-(2-amino-1-fluoroethylidene)piperidin-1-yl)-1-cyclopropyl-6-fluoro-8-methoxy-4-oxo-1,4-dihydroquinoline-3-carboxylic acid] (the compound of formula (M)) were dissolved to 1 mg/mL, and diluted to 20 ng/mL in fresh, chilled (4° C.) human or mouse whole blood or plasma, or kidney and liver extract (prepared from the respective fresh mouse organs as described below). Compound concentrations were normalized to parent drug content by multiplying by a ratio of the relative molecular weights. Time 0 (minute) samples were prepared by immediately diluting with an equal volume of acetonitrile, vortexing, and transferring the samples to ice. For additional time points, samples were placed in an incubator (Tables 4 and 5), or in a heating block (Tables 6-12) at 37° C. for the indicated time, then immediately vortexed with an equal volume of acetonitrile and placed on ice. Samples were centrifuged and further diluted with an equal volume of water to a final concentration of 25% acetonitrile prior to analysis by HPLC; diluted samples were retained in the cooled (4° C.) HPLC sample injection chamber pending injection.
Representative compounds of the present invention and the parent compound were analyzed by reversed-phase HPLC using an Agilent 1100 system. Samples were injected onto a Zorbax SB-C18 column (3.5 μM, 4.6×150 mm) with a guard cartridge, and developed on a gradient of 15% aqueous acetonitrile in 0.1% trifluoroacetic acid to 85% aqueous acetonitrile in 0.1% trifluoroacetic acid over 10 minutes. The solvent flow rate was 1 mL/min, and the column temperature was 40° C. Compound and parent peak identification was by diode array detection, monitored at 300 nm Conversion of the compounds (prodrugs) to parent drug was estimated by peak areas (A300 nm, mAU) of the respective agents.
For studies with Compounds #1, #4 and #6 (with results as listed in Tables 8, 9 and 10), fresh human whole blood and plasma samples were purchased from BioChemed Services, shipped in Styrofoam coolers maintained with frozen cold packs, and used within 48 hours of receipt. For studies with Compounds #15 and #16 (with results as listed in Tables 11 and 12), blood was drawn from volunteers and whole blood samples and isolated plasma prepared and immediately placed on ice. Whole blood and plasma samples were maintained at 4° C. and used within approximately 30 hours.

[4] = system: Staphylococcus aureus (OC8525), a methicillin-resistant strain (MRSA); experiment: In vivo efficacy in a mouse systemic infection model; settings: for ED50: Staphylococcus aureus, 72 h, Swiss Webster mice infected i.p. with MRSA, 3 day survival, normalized to parent content
Experimental: Female Swiss Webster mice weighing between 20-25 g were infected intraperitoneally with approximately 5×10^5 colony forming units (CFU) Staphylococcus aureus (OC8525), a methicillin-resistant strain (MRSA), in 7% mucin. One hour later, the animals were given the test compound intravenously or orally in a dose volume of 0.2 mL. Each animal test group consisted of eight animals. The test compounds were prepared immediately before dosing in 5% dextrose in water (D5W) and diluted further in D5W for i.v. and p.o. administration. The mice were observed over a three day period and ED50 values were calculated from the resulting % survival curves (see Table 13, below). The measured ED50 values were normalized to the content of (E)-7-(3-(2-amino-1-fluoroethylidene)piperidin-1-yl)-1-cyclopropyl-6-fluoro-8-methoxy-4-oxo-1,4-dihydroquinoline-3-carboxylic acid. For some compounds, in vivo efficacy was determined by testing a group of eight mice at a single dose level only. In these cases, the data presented in Table 13, below are reported as percent survival at the designated dose.

[5] = Aqueous solubility, modified procedure (saturated solutions, RP-HPLC); format: physicochemical; settings: thermodynamic from solid, 100 mM phosphate buffer
[6] = homogenized mouse kidney, 0 min
[7] = homogenized mouse kidney, 5 min
[8] = homogenized mouse kidney, 30 min
[9] = homogenized mouse liver, 30 min
[10] = fresh human blood (purchased), 0.0 min
[11] = fresh human plasma (purchased), 0.0 min
[12] = fresh human plasma (purchased), 5.0 min
[13] = fresh human plasma (purchased), 15.0 min
[14] = fresh human plasma (purchased), 30.0 min
[15] = oral dose 1 h later, read-out: ED50 p.o.
[16] = iv, i.v. dose 1 h later, read-out: ED50 i.v.

Structure (SMILES)	solubility at 24 h [1]	Aqueous Solubility pH~7 (visual clarity) [1]	Peak Area of pro-drug ([2]; fresh mouse plasma, 0 min)	Peak Area of pro-drug ([2]; fresh mouse plasma, 5 min)	Peak Area of pro-drug ([2]; fresh mouse plasma, 30 min)	Peak Area of pro-drug [2, 6]	Peak Area of pro-drug [2, 7]	Peak Area of pro-drug [2, 8]	Peak Area of pro-drug ([2]; homogenized mouse liver, 0 min)	Peak Area of pro-drug ([2]; homogenized mouse liver, 5 min)	Peak Area of pro-drug [2, 9]	Conversion to the parent compound (summary in words) [2]	Peak Area of pro-drug [3, 10]	Peak Area of pro-drug [3, 11]	Peak Area of pro-drug [3, 12]	Peak Area of pro-drug [3, 13]	Peak Area of pro-drug [3, 14]	Conversion to the parent compound (summary in words) [3]	ED50 [4, 15]	ED50 [4, 16]	further results
COc1c(N2CCC/C(=C(\F)CNC(=O)[C@@H](N)C(C)C)C2)c(F)cc2c(=O)c(C(=O)O)cn(C3CC3)c12.Cl [Compound 1, 7-{3-[2-((2S)-2-Amino-3-methyl-butyrylamino)-1-fluoro-ethylidene]-piperidin-1-yl}-1-cyclopropyl-6-fluoro-8-methoxy-4-oxo-1,4-dihydro-quinoline-3-carboxylic acid hydrochloride]	< 3300 µg/mL	No	298 mAU	296 mAU	286 mAU	222 mAU	152 mAU	41 mAU	235 mAU	171 mAU	51 mAU	converted to the parent compound	365 mAU	401 mAU	386 mAU	369 mAU	371 mAU	converted to the parent compound	9.9 mg/kg	1.3 mg/kg	Peak Area of pro-drug ([3]; fresh human blood (purchased), 3.0 min): 339 mAU; Peak Area of pro-drug ([3]; fresh human blood (purchased), 5.5 min): 339 mAU; Peak Area of pro-drug ([3]; fresh human blood (purchased), 8.0 min): 328 mAU; Peak Area of pro-drug ([3]; fresh human blood (purchased), 10.5 min): 289 mAU; Peak Area of pro-drug ([3]; fresh human blood (purchased), 15.5 min): 256 mAU
COc1c(N2CCC/C(=C(\F)CNC(=O)[C@H](C)N)C2)c(F)cc2c(=O)c(C(=O)O)cn(C3CC3)c12.Cl [Compound 4, 7-{3-[2-((2S)-2-Amino-propionylamino)-1-fluoro-ethylidene]-piperidin-1-yl}-1-cyclopropyl-6-fluoro-8-methoxy-4-oxo-1,4-dihydro-quinoline-3-carboxylic acid hydrochloride]	> 3300 µg/mL	No	–	–	–	–	–	–	–	–	–	converted to the parent compound	401 mAU	442 mAU	383 mAU	339 mAU	268 mAU	converted to the parent compound	19.8 mg/kg	0.7 mg/kg	Peak Area of pro-drug ([3]; fresh human blood (purchased), 4.0 min): 205 mAU; Peak Area of pro-drug ([3]; fresh human blood (purchased), 6.5 min): 123 mAU; Peak Area of pro-drug ([3]; fresh human blood (purchased), 9.0 min): 79 mAU; Peak Area of pro-drug ([3]; fresh human blood (purchased), 11.5 min): 84 mAU; Peak Area of pro-drug ([3]; fresh human blood (purchased), 16.5 min): 68 mAU
COc1c(N2CCC/C(=C(\F)CNC(=O)CN)C2)c(F)cc2c(=O)c(C(=O)O)cn(C3CC3)c12.Cl [Compound 6, 7-{3-[2-(2-Amino-acetylamino)-1-fluoro-ethylidene]-piperidin-1-yl}-1-cyclopropyl-6-fluoro-8-methoxy-4-oxo-1,4-dihydro-quinoline-3-carboxylic acid hydrochloride]	< 3300 µg/mL	No	363 mAU	329 mAU	281 mAU	219 mAU	72 mAU	11 mAU	254 mAU	143 mAU	34 mAU	converted to the parent compound	369 mAU	393 mAU	386 mAU	399 mAU	393 mAU	converted to the parent compound	> 17.6 mg/kg	0.6 mg/kg	Peak Area of pro-drug ([3]; fresh human blood (purchased), 3.5 min): 290 mAU; Peak Area of pro-drug ([3]; fresh human blood (purchased), 6.0 min): 188 mAU; Peak Area of pro-drug ([3]; fresh human blood (purchased), 8.5 min): 159 mAU; Peak Area of pro-drug ([3]; fresh human blood (purchased), 11.0 min): 134 mAU; Peak Area of pro-drug ([3]; fresh human blood (purchased), 16.0 min): 95 mAU
COc1c(N2CCC/C(=C(\F)CNC(=O)[C@@H](N)CN(C)C)C2)c(F)cc2c(=O)c(C(=O)O)cn(C3CC3)c12.Cl.Cl [Compound 14, 7-{3-[2-((2S)-2-Amino-3-dimethylamino-propionylamino)-1-fluoro-ethylidene]-piperidin-1-yl}-1-cyclopropyl-6-fluoro-8-methoxy-4-oxo-1,4-dihydro-quinoline-3-carboxylic acid dihydrochloride]	–	–	–	–	–	–	–	–	–	–	–	–	–	–	–	–	–	–	–	–	solubility at 18 h ([5]; pH 4, aqueous buffer, read-out: Aqueous Solubility pH~4): 6890 µg/mL; solubility at 18 h ([5]; pH 7, aqueous buffer, read-out: Aqueous Solubility pH~7): > 3000 µg/mL; % Survival ([4]; i.v., at 2.0 mg/kg/day, mice): 12.5% at 2.0 mg/kg/day
